Active and inactive are the calls of the source. A value given as a limit tells only on which side of the number the result lay.

One may read the EC50 as the midpoint of the concentration-response curve. One may read the IC50 as the concentration needed to halve the response being measured.

For assay [1], the target named is T1, Trace amine-associated receptor 1 (Homo sapiens, UniProt Q96RJ0). The assay can be described thus: Fluorescence-based cell-based high throughput dose response assay to identify agonists of the human trace amine associated receptor 1 (TAAR1). The class given is functional.
T1 sequence (Q96RJ0 whole entry): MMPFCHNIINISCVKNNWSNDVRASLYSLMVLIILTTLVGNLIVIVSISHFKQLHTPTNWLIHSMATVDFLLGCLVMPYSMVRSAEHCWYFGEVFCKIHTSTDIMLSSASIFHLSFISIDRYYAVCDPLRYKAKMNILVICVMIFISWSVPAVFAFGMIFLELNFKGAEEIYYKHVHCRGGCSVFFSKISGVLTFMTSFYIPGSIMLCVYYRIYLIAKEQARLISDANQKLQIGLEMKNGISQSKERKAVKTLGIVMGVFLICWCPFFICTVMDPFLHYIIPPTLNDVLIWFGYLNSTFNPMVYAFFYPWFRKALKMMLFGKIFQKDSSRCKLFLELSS
The nature of assay [2]: cells. The class given is functional, cell-based.
The target of assay [3] is T1, Trace amine-associated receptor 1. In words: Counterscreen for agonists of the human trace amine associated receptor 1 (hTAAR1): Fluorescence-based cell-based high throughput dose response assay to identify hTAAR1 agonist that also desensitize TAAR1 receptor response. In kind it is functional.
Assay [4] in a line: cells. The class given is functional, cell-based. The source holds these as a separate data set.

As for `O=C(CCCCl)N1CCc2[nH]c3ccccc3c2C1`, the concentration giving a half-maximal response (EC50) was 0.492 µM (active) in assay [1] and > 29.9 µM (inactive) in “cells [2]”. Moreover, the 50% inhibitory concentration (IC50) in assay [3] was 2.05 µM (active); in the assay “cells [4]”, > 29.9 µM (inactive).

The values are drawn from ChEMBL document CHEMBL1201862, “PubChem BioAssay data set” (2004).
